According to patent US6773881B2, “Methods of modulating hair growth” (The General Hospital Corporation, priority 2000, dated 2004):
“Also recorded” adds a separate entry of the source.

Tested on: mouse vibrissa follicles
Assay: Mouse vibrissa organ culture system
Assay type: cell-based, mice
Settings: 4 days
Method: Whisker pads were isolated from three 5 week old female C57/BL mice and were shortly immersed in 70% ethanol in phosphate-buffered saline (PBS), followed by a 10 minute incubation in William's E medium containing 400 U/ml penicillin, 400 μg/ml streptomycin, and 1.0 μg/ml fungizone (all from GibcoBRL). Vibrissa follicles in the anagen growth phase were isolated under a dissecting microscope, and the part of the vibrissa shaft that extend over the epidermal surface was cut off. Vibrissa follicles were then incubated on Millapore membranes in William's E medium alone (n-8), in medium containing 50 ng/ml recombinant murine VEGF (R&D Systems; n=6), or medium containing 5% fetal bovine serum (FBS; n=8). The media were replaced by fresh media after 2 days, and the follicles were incubated over a total period of 4 days. After 4 days, the length of the outgrowing hair shafts was measured by image analysis of digital pictures, taken under a Nikon E600 microscope.
In addition, whisker follicles were isolated and cultured as described above. Seven follicles were treated with 5 μg/ml of a goat anti-mouse VEGF neutralizing antibody (R&D Systems), and 8 follicles were treated with 5 μg/ml of normal goat IgG.

With VEGF the “average hair growth (length of outgrowing hair shafts)” value (50 ng/ml recombinant murine VEGF, control 1.963±0.101 mm) was 1.959±0.086 mm and the “effect on in vitro hair growth compared with control” value (vibrissa organ culture, absence of a vascular system) was “no significant differences; also recorded: did not influence”.
